In US11674959B2, “Methods for identifying and preparing pharmaceutical agents for activating Tie1 and/or Tie2 receptors” (The Johns Hopkins University, priority 2017, dated 2023):

Experiments:
Tie2 = test: Western blot of MEC lysates, Ang1/2 signaling: Tie2 phosphorylation; format: cell-based, human
Procedure: To investigate the effects of the integrin inhibitor AXT107 on Tie2 signaling, confluent monolayers of microvascular endothelial cells (MECs) on fibronectin-coated dishes were treated with various concentrations of AXT107 followed by exposure to the Tie2 ligands Ang1 or Ang2.
Human dermal microvascular endothelial cells (Lonza) were maintained at 37° C. and 5% CO2 in EBM-2MV medium (Lonza) and used between passages two through seven. Where applicable, cells were serum starved in EBM-2 medium (Lonza) with no supplements. For FITC-Dextran permeability assays phenol red-free media were used to avoid auto-fluorescence. AXT107 were manufactured at New England Peptide by […], lyophilized, and dissolved in 100% DMSO.
(§1) For Ang1/2 signaling investigations, cell culture dishes (10 cm diameter) were coated with 5 μg/ml fibronectin (FN1; Sigma-Aldrich, St. Louis, Mo.) for two hours at 37° C. The FN1 solution was then removed by aspiration and 5×10^6 microvascular endothelial cells (MECs; Lonza, Walkersville, Md.) were plated in EGM-2MV media (Lonza) and cultured for forty-eight hours at 37° C. The cells were then serum starved for sixteen hours in serum-free EGM-2 base media (Lonza). AXT107 (0-100 μM, as indicated) was subsequently added to each culture and incubated for seventy-five minutes at 37° C. The cultures were then treated with 1 mM sodium vanadate (New England Biolabs, Ipswich, Mass.) for fifteen minutes to enhance the phospho-Tie2 signal followed by stimulation with 200 ng/ml angiopoietin (R&D Systems, Minneapolis, Minn.) for an additional fifteen minutes. The cells were then transferred to ice, washed twice with ice cold Dulbecco's phosphate-buffered saline (dPBS) containing Ca^2+ and Mg^2+, and collected by scraping in 500 μl of 1× Blue Loading Buffer (Cell Signaling, Danvers, Mass.). Lysate samples were then sonicated, boiled, and resolved by SDS-PAGE. Specific proteins were identified by Western blot, using the following primary antibodies: Cell Signaling—phospho-Tie2 (Y992) (Cat #: 4221), Tie2 (Cat #: 7403), phospho-Stat3 (Y705) (Cat #: 4113), Stat3 (Cat #: 4904), phospho-Akt (S473) (Cat #: 4058), Akt (Cat #: 9272), phospho-p44/42 MAPK (T202/Y204) (Cat #: 4370), p44/42 MAPK (Cat #: 4695); BD Transduction Laboratories—β1 integrin (Cat #: 610467); Millipore—α5 integrin (Cat #: AB1928) and detected with HRP-conjugated goat anti-rabbit and sheep anti-mouse secondary antibodies (GE healthcare).

[1] = tested on: myosin light chain 2 (MLC2); test: Western blot of MEC lysates for pMLC2; format: cell-based, human; details: AXT107 and 200 ng/ml Ang2
Procedure: Phosphorylation of Tie2 is known to stimulate the Rap1-GTPase pathway, leading to a reduction in the phosphorylation of the downstream motor protein myosin light chain 2 (MLC2) associated with actin rearrangement.
as §1, with “The cultures were then treated with 1 mM sodium vanadate (New England Biolabs, Ipswich, Mass.) for fifteen minutes to enhance the phospho-Tie2 signal followed by stimulation with 200 ng/ml angiopoietin (R&D Systems, Minneapolis, Minn.) for an additional fifteen minutes. The cells were then transferred to ice, washed twice with ice cold Dulbecco's phosphate-buffered saline (dPBS) containing Ca^2+ and Mg^2+, and collected by scraping in 500 μl of 1× Blue Loading Buffer (Cell Signaling, Danvers, Mass.). Lysate samples were then sonicated, boiled, and resolved by SDS-PAGE.” left out

VE-cadherin = test: Western blot of VE-Cadherin from MEC monolayers; format: cell-based, human; details: three hours of AXT107 and Ang2 treatment
Procedure: The jaggedness of these junctions is related to the structure of actin within the cell.
as §1, with “AXT107 (0-100 μM, as indicated) was subsequently added to each culture and incubated for seventy-five minutes at 37° C. The cultures were then treated with 1 mM sodium vanadate (New England Biolabs, Ipswich, Mass.) for fifteen minutes to enhance the phospho-Tie2 signal followed by stimulation with 200 ng/ml angiopoietin (R&D Systems, Minneapolis, Minn.) for an additional fifteen minutes.” left out, “Lysate samples were then sonicated, boiled, and resolved by SDS-PAGE.” left out

[2] = Self-assembly of peptide in media; format: physicochemical; details: added to media
integrin αvβ3 = integrin αvβ3 (Homo sapiens, UniProt P05106+P06756); details: Lee et al. 2014; Lima et al. 2017; cited from earlier work
integrin αvβ3, sequence (P06756 31-1048): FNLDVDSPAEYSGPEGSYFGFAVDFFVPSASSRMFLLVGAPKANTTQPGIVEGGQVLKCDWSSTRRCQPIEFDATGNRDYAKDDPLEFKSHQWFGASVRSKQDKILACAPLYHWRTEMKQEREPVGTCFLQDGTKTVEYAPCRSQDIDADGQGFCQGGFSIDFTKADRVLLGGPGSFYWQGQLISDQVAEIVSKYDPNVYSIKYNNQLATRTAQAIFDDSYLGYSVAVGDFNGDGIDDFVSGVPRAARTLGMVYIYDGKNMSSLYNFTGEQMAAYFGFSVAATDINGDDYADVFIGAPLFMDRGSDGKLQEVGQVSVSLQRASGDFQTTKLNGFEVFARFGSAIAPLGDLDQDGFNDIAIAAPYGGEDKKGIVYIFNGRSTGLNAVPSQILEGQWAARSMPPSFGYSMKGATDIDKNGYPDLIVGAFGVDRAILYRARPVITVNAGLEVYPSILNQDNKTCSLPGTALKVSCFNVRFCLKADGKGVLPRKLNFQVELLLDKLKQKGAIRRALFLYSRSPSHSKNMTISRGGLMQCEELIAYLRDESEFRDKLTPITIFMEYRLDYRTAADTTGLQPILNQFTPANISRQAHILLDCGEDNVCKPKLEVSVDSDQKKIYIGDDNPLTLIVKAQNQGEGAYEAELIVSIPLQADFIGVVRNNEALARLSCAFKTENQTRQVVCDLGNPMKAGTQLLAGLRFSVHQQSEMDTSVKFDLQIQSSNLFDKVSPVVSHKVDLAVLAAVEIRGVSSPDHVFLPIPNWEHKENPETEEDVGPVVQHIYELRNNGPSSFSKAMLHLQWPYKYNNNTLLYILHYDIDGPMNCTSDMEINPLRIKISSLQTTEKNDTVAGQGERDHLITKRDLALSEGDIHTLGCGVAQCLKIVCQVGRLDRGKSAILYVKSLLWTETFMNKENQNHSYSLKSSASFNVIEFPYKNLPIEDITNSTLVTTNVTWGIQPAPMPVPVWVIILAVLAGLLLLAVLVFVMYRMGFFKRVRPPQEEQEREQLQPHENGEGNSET
integrin αvβ3, sequence (P05106 27-788): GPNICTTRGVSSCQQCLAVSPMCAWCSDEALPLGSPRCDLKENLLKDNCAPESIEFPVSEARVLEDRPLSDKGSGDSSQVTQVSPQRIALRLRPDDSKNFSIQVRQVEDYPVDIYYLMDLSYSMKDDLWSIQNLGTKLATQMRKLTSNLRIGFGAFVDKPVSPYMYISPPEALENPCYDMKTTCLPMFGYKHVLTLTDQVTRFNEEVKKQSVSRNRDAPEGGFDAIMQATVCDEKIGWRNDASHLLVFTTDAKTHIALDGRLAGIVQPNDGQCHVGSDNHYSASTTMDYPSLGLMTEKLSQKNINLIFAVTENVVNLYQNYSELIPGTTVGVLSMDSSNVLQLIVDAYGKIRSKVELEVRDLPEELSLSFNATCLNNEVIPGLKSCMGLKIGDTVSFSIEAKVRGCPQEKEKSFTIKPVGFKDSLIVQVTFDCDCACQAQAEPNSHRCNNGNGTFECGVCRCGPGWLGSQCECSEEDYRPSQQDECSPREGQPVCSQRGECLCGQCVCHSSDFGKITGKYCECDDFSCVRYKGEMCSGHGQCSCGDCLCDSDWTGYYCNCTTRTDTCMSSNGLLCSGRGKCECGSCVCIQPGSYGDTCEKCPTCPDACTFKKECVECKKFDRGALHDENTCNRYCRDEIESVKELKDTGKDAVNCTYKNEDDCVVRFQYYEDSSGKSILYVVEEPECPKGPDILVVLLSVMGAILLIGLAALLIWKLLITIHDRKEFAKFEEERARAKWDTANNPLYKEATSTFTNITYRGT

LRRFSTAPFAFIDINDVINF [AXT107]
Tie2 phosphorylation (Tie2; AXT107 (0-100 μM) in combination with 200 ng/ml Ang2): significant, dose-dependent increase in Tie2 phosphorylation
Influence on Ang1 activity (Tie2 phosphorylation) (Tie2; MECs on fibronectin, AXT107 then Ang1, data not shown): did not significantly influence Ang1 activity
Phosphorylation by peptide alone (Tie2; absence of either ligand): phosphorylation was not induced by peptide alone
Total protein levels of Tie2 and the downstream targets (Tie2; data not shown): remained unchanged
Phosphorylation of MLC2 [1]: reduced in a dose-dependent manner
Total level of VE-cadherin (VE-cadherin): remained unchanged
Self-assembly in media [2]: self-assemble into peptide complexes when added to media
Binding to integrin αvβ3 (integrin αvβ3): binds tightly
